From patent publication US6447801B1, “Anti-parasitic action of N,N-diethyl-m-toluamide (deet) and formulations that prolong its activity in the skin” (priority 1997, dated 2002)
“And” between values parts separate entries of the source, which are not always exact repeats. Equal values may be shown once.

What was measured:
[1] = system: cercariae of S. mansoni; test: Cercarial penetration through mouse skin and worm establishment, application before infection (compressed organ autoradiography); assay type: in vivo, Schistosoma mansoni; conditions: for protection against schistosomiasis: 10% DEET
Excerpt: (§1) For in vivo animal experiments, male mice of the CD1 strain, weighing approximately 18-20 grams, purchased from Charles River Laboratories (Wilmington, Mass.) were used. The use of animals in these experiments were in compliance with the Animal Welfare Act and other Federal statues and regulations relating to animals as stated in the National Institute of Health publication: Guide for the Care and Use of Laboratory Animals. Mice were infected individually with schistosome cercariae via either tail skin or via shaved abdominal skin. For infection via tail skin, the mouse was restrained in a cage and the tail was dipped for 60 minutes in a tube containing 250-300 ^35S-labeled cercariae suspended in 10 ml of distilled water at room temperature. For infection via abdominal skin, the mouse was restrained on its back. After shaving the abdominal skin, 150-200 ^35S-labeled cercariae were applied to the skin in a drop of distilled water, covered with a cover slip and exposed for 30 minutes.
(§2) To determine skin penetration and worm establishment, whole tail skin or the area of abdominal skin that was exposed to the cercariae as described above and the lungs were removed from each mouse on day seven after infection and processed for compressed organ autoradiography techniques as described previously (Li J W et al., Parasitology International 46: 55-65 (1997)). Briefly, the skin and lungs were mounted on a cardboard sheet, covered with plastic wrap and kept under a tissue press for 48 hrs at room temperature. The pressed and dried tissue was then exposed to X-ray film (Fuji RX, Fisher Scientific, Pittsburgh, Pa.) at −70° C. for 7-9 days. Following autoradiographic development, the dark spots (which represent reduced silver foci on film) were counted and percent worm establishment was calculated (number of spots/total number of cercariae used for infection X 100).
For application of DEET to the tail skin, mice were individually kept in restraining cages and their tail was dipped in 7.5% DEET solution (prepared in isopropanol) for 5 min. Following application the skin was air dried for 30 min, and rinsed in distilled water for 1 min before exposure to radio-labeled cercariae of S. mansoni as mentioned in Example 3.
For application of DEET to the abdominal skin, mice were restrained to the back and their abdomen shaved. 200 μl of an appropriate concentration of DEET in isopropanol solution was dropped on to the abdomen and allowed to dry for 15 min. After drying, the skin was washed for 1 min with distilled water and exposed to radio-labeled cercariae for 30 min.
Experiments were also conducted to see how long the cercaricidal activity of DEET remained in the skin after a single application. In these experiments 10% DEET was applied to the shaved abdominal skin of mice and was allowed to dry. Thirty minutes after DEET application, the area of skin was washed continuously for one minute with running distilled water. At different time points (30 min, 1 hr, 4 hrs, and 24 hrs) after DEET application, mice were infected with radio-labeled cercariae (as described in Example 2) and worm establishment was determined by compressed organ autoradiography (as described in Example 3).

[2] = system: cercariae of S. mansoni; test: Effect of DEET applied to the skin after exposure to S. mansoni infection in mice; assay type: in vivo, Schistosoma mansoni
Excerpt: as §1, with “For infection via abdominal skin, the mouse was restrained on its back. After shaving the abdominal skin, 150-200 ^35S-labeled cercariae were applied to the skin in a drop of distilled water, covered with a cover slip and exposed for 30 minutes.” left out
as §2, with “Briefly, the skin and lungs were mounted on a cardboard sheet, covered with plastic wrap and kept under a tissue press for 48 hrs at room temperature. The pressed and dried tissue was then exposed to X-ray film (Fuji RX, Fisher Scientific, Pittsburgh, Pa.) at −70° C. for 7-9 days.” left out, “100). […]” for “100).”

[3] = system: insects; conditions: normally; cited from earlier work
[4] = system: cercariae of Schistosoma mansoni; test: In vitro effects of DEET on S. mansoni cercariae (viability by neutral red); assay type: cell-based
Procedure: FIG. 1 illustrates the in vitro effects of DEET on S. mansoni cercariae. In vitro effects of DEET on cercariae of Schistosoma mansoni. Cercariae were placed in 96 well titre plates coated previously with a serial doubling dilutions of DEET ranging from 30% to 0.24%. At different time periods after exposure to DEET, the percent viability of cercariae was evaluated by neutral red exclusion method. The experiment was repeated 17 times with an “n” of 189 to 440 cercariae for each treatment.
Based on the foregoing observations, DEET was tested for its effects on S. mansoni cercariae. DEET is commercially available and was purchased from Fluka Chemicals Corp. (Ronkonkoma, N.Y.). For in vitro studies, serial doubling dilutions of DEET ranging from 30% to 0.24% were prepared in isopropanol(Sigma, St. Louis, Mo.) and 50 μl of each dilution was transferred to individual wells of a 96 well flat bottom micro titre plate (Costar, Cambridge, Mass.). Control wells received 50 μl of isopropanol each. The plates were then kept covered in a fume hood and the fluid was allowed to evaporate overnight. The following day approximately 50 cercariae of S. mansoni suspended in 50 μl of RPMI-1640 media (pH 7.4; Gibco BRL) or phosphate buffered saline (PBS, pH 7.0) was placed in each well and the viability of the cercariae were monitored at 30 min, 60 min, and 4 hrs. A total of 17 replicas were performed for each dilution and for each time point in any one given experiment. To determine the viability of cercariae, 10 μl of a 0.05% Neutral Red (Sigma Chemical Co.) was added to each well at the end of the experiment and the percentage of live and dead cercariae was determined as described in He et al., Acta Zoologica Sinica, 31:240-245 (1985).

[5] = 7.5% DEET applied to skin before infection, mice, day 7, n = 10

## CCN(CC)C(=O)c1cccc(C)c1 [DEET, N,N-diethyl-m-toluamide]
[1]; 5% DEET applied to mouse skin
  protection against cercarial penetration: 72%
[1]; [5]
  Percent Worm Established, Lungs: 0
  Percent Worm Established, Skin: 0.13 ± 0.01%
  Percent Worm Established, Total: 0.13% and 0.13 ± 0.01%
[1]; infection 30 min after application, skin washed one minute
  protection against schistosomiasis: 100%
[1]; infection 24 hrs after application
  protection against schistosomiasis: no protection at all
[1]; infection four hours after application
  protection against schistosomiasis: 85±1%
[1]; infection one hour after application
  protection against schistosomiasis: 98±1%
[1]; DEET at 10, 20 or 40%
  effectiveness in preventing the entry of cercaria into the mouse skin: 100%
[2]; 40% DEET applied 4 hrs or more after infection
  protection: no protection
[2]; 40% DEET applied within 30 min after exposure to cercariae
  effectiveness in preventing the infection: 100%
[3]
  duration of effect under field condition: eight hours
[4]; DEET 7.5%
  time to immobilize all the cercariae: ≤ 5 min
[4]; DEET 7.5%, by 4 hours
  cercariae dead: 100%
[4]; DEET at concentrations of 15% and above
  immobilization of cercariae: immediately immobilized
[4]; DEET at concentrations of 15% and above, 30 minutes
  cercariae dead (neutral red staining): 100%
[4]; concentrations below 7.5% of DEET
  immobilizing or killing of cercariae: less effective in immobilizing or killing cercariae
